Data reported in PubChem BioAssay (NCI).
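Assay format: 96-well plates, 48-hour exposure. GI50 marks 50% less growth. Definition used: TGI = concentration required for complete inhibition of growth.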

Legend:
Experiment in all cases: DTP human tumour cell line panel, 48 h
SK-OV-3 ovarian = system: SK-OV-3 ovarian
SF-295 CNS = system: SF-295 CNS
UACC-62 melanoma = system: UACC-62 melanoma
SF-539 CNS = system: SF-539 CNS
NCI-H23 lung = system: NCI-H23 lung
HOP-62 NSCLC = system: HOP-62 NSCLC
DU-145 prostate = system: DU-145 prostate
NCI/ADR-RES ovarian = system: NCI/ADR-RES ovarian
MALME-3M melanoma = system: MALME-3M melanoma
HOP-92 NSCLC = system: HOP-92 NSCLC

| Structure (SMILES) | GI50 (SK-OV-3 ovarian) [µM] | TGI (SK-OV-3 ovarian) [µM] | GI50 (SF-295 CNS) [µM] | TGI (SF-295 CNS) [µM] | GI50 (UACC-62 melanoma) [µM] | TGI (UACC-62 melanoma) [µM] | GI50 (SF-539 CNS) [µM] | TGI (SF-539 CNS) [µM] | GI50 (NCI-H23 lung) [µM] | TGI (NCI-H23 lung) [µM] | GI50 (HOP-62 NSCLC) [µM] | TGI (HOP-62 NSCLC) [µM] | GI50 (DU-145 prostate) [µM] | TGI (DU-145 prostate) [µM] | GI50 (NCI/ADR-RES ovarian) [µM] | TGI (NCI/ADR-RES ovarian) [µM] | TGI (MALME-3M melanoma) [µM] | TGI (HOP-92 NSCLC) [µM] |
| --- | --- | --- | --- | --- | --- | --- | --- | --- | --- | --- | --- | --- | --- | --- | --- | --- | --- | --- |
| COc1cc2c(c(OC)c1OC)C(=O)c1c-2n(CCCN)c(=O)c2cc([N+](=O)[O-])ccc12 | 1.95 | 4 | 1.64 | 3.39 | 9.16 | 24.2 | 0.55 | 1.16 | 1.52 | 3.81 | 0.958 | 2.6 | 0.962 | 2.31 | 2.03 | 9.98 |  |  |
| COc1ccc2c(CCNS(=O)(=O)c3ccccc3)c(C(C)=O)[nH]c2c1[N+](=O)[O-] |  |  |  | > 100 |  | > 100 |  | 77.7 |  | > 100 |  | > 100 |  |  |  |  |  |  |
| O=C(CN1C(=O)c2ccccc2C1=O)OC1C=CCCC1 (stereo unspecified) |  | > 100 |  |  |  | > 100 |  | > 100 |  |  |  | > 100 |  |  |  |  | > 100 |  |
| c1ccc2c(c1)[Se]c1ccccc1[Se]2 |  | > 100 |  | 73.8 |  | > 100 |  | > 100 |  | > 100 |  | > 100 |  |  |  |  | > 100 | 76.3 |
| CN1NC(c2ccccc2)=C(C#N)C(=O)CC1c1ccccc1Cl (stereo unspecified) |  | > 100 |  | > 100 |  |  |  |  |  | > 100 |  | 94.1 |  |  |  |  | > 100 | > 100 |
| CP(=O)(CCSc1ccccc1)c1ccccc1 (stereo unspecified) |  | > 100 |  | > 100 |  | > 100 |  | > 100 |  | > 100 |  | > 100 |  |  |  |  | > 100 | > 100 |
| O=c1c2cc(-c3ccccc3)sc2nc2sc(-c3ccccc3)nn12 |  | > 100 |  | > 100 |  | > 100 |  | > 100 |  | > 100 |  | > 100 |  |  |  |  | > 100 | > 100 |
| Cc1cc(Cl)ccc1N1C(=O)C(=O)C(c2nc3ccccc3s2)/C(=N\NC(=O)c2ccccc2O)C1=O (stereo unspecified) |  | > 100 |  | > 100 |  | > 100 |  | > 100 |  | > 100 |  | > 100 |  |  |  |  | > 100 | > 100 |
| O=S(O)CCCCSSCCCCS(=O)(O)=S |  | > 100 |  | > 100 |  | 70.1 |  | > 100 |  | > 100 |  | > 100 |  |  |  |  | > 100 |  |
